Experimental data published in PubChem BioAssay AID330 (DTP/NCI, 2004).
Values joined by “and” are separate entries in the source; they are usually repeats but may differ in a detail not shown here. Equal entries are not always repeated. Inconclusive results and toxic doses are left out.

Test system: P388 leukemia ip, CD2F1 mice, survival T/C
Experiment: NCI In Vivo Anticancer Drug Screen. Data for tumor model P388 Leukemia (intraperitoneal) in CD2F1 (CDF1) mice
Details: endpoint: median survival time, higher = longer survival
How it was run: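 Mice carrying the transplanted tumor received test compound or vehicle. Survival was recorded in each group, and the value is the treated-group measurement divided by that of the vehicle-treated control group.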

[1] = dose: 50.0 mg/kg/injection, schedule: Q01DX005 (ip), vehicle: Klucel (hydroxypropylcellulose) (HPC)
[2] = dose: 100.0 mg/kg/injection, schedule: Q01DX005 (ip), vehicle: Klucel (hydroxypropylcellulose) (HPC)
[3] = dose: 200.0 mg/kg/injection, schedule: Q01DX005 (ip), vehicle: Klucel (hydroxypropylcellulose) (HPC)
[4] = dose: 50.0 mg/kg/injection, schedule: Q01DX005 (ip), vehicle: saline with Tween-80
[5] = dose: 100.0 mg/kg/injection, schedule: Q01DX005 (ip), vehicle: saline with Tween-80
[6] = dose: 50.0 mg/kg/injection, schedule: Q01DX009 (ip), vehicle: Klucel (hydroxypropylcellulose) (HPC)
[7] = dose: 100.0 mg/kg/injection, schedule: Q01DX009 (ip), vehicle: Klucel (hydroxypropylcellulose) (HPC)
[8] = dose: 200.0 mg/kg/injection, schedule: Q01DX009 (ip), vehicle: Klucel (hydroxypropylcellulose) (HPC)

CN1CCc2c3c(c4c(c21)CCN4C)CCc1ccccc1-3
T/C [1]: 104 % of control
T/C [2]: 101 % of control
T/C [3]: 96 % of control

CN(C)c1ccc(C=NCCC[Si]23OCCN(CCO2)CCO3)cc1
T/C [1]: 106 % of control
T/C [2]: 100 % of control
T/C [3]: 111 % of control

NC(=S)N/N=C/C=C/c1ccccc1
T/C (dose: 25.0 mg/kg/injection, schedule: Q04DX002 (ip), vehicle: Klucel (hydroxypropylcellulose) (HPC)): 96 % of control
T/C (dose: 50.0 mg/kg/injection, schedule: Q04DX002 (ip), vehicle: Klucel (hydroxypropylcellulose) (HPC)): 105 % of control
T/C (dose: 100.0 mg/kg/injection, schedule: Q04DX002 (ip), vehicle: Klucel (hydroxypropylcellulose) (HPC)): 101 % of control

Oc1ccccc1C=NCCC[OH2+].Oc1ccccc1C=NCCC[OH2+].[Cu].[Cu]
T/C (dose: 25.0 mg/kg/injection, schedule: Q01DX005 (ip), vehicle: saline with Tween-80): 103 % of control
T/C [4]: 100 % of control and 102 % of control and 104 % of control
T/C [5]: 109 % of control

Brc1ccc(-c2cc(-c3cccs3)cc(-c3ccccc3)n2)cc1
T/C [6]: 100 % of control
T/C [7]: 108 % of control
T/C [8]: 101 % of control

O=C(CCl)n1ccc(=O)n(C(=O)CCl)c1=O
T/C (dose: 100.0 mg/kg/injection, schedule: Q04DX002 (ip), vehicle: saline): 113 % of control
T/C (dose: 200.0 mg/kg/injection, schedule: Q04DX002 (ip), vehicle: saline): 100 % of control
T/C (dose: 400.0 mg/kg/injection, schedule: Q04DX002 (ip), vehicle: saline): 103 % of control

Cc1ccc(S(=O)(=O)NCCSSCCNS(=O)(=O)c2ccc(C)cc2)cc1
T/C [1]: 103 % of control
T/C [2]: 106 % of control
T/C [3]: 103 % of control

CC(=O)C1C(=O)C(=O)N(c2ccc(Cl)cc2)C1=O (centres undefined)
T/C [6]: 101 % of control
T/C [7]: 96 % of control
T/C [8]: 104 % of control

CC1(C)CCCC2(C)C3=C(CCC12)C(=O)OC3 (centres undefined)
T/C (dose: 25.0 mg/kg/injection, schedule: Q01DX005 (ip), vehicle: Klucel (hydroxypropylcellulose) (HPC)): 101 % of control
T/C [1]: 102 % of control
T/C [2]: 100 % of control
T/C [3]: 100 % of control

COc1cccc(OC)c1OCCBr
T/C (dose: 50.0 mg/kg/injection, schedule: Q01DX009 (ip), vehicle: saline with Tween-80): 103 % of control
T/C (dose: 100.0 mg/kg/injection, schedule: Q01DX009 (ip), vehicle: saline with Tween-80): 98 % of control
T/C (dose: 200.0 mg/kg/injection, schedule: Q01DX009 (ip), vehicle: saline with Tween-80): 100 % of control

CC1=NC(C)(COC(=O)C2(C)NC(C)(CO)CO2)COC1=O (centres undefined)
T/C (dose: 60.0 mg/kg/injection, schedule: Q01DX005 (ip), vehicle: saline): 105 % of control
T/C (dose: 120.0 mg/kg/injection, schedule: Q01DX005 (ip), vehicle: saline): 97 % of control
T/C (dose: 240.0 mg/kg/injection, schedule: Q01DX005 (ip), vehicle: saline): 97 % of control

CC(=O)O[C@]12C=C[C@H](O1)[C@@H]1C(=O)NC(=O)[C@@H]12
T/C (dose: 6.25 mg/kg/injection, schedule: Q04DX002 (ip), vehicle: saline): 98 % of control
T/C (dose: 12.5 mg/kg/injection, schedule: Q04DX002 (ip), vehicle: saline): 106 % of control
T/C (dose: 25.0 mg/kg/injection, schedule: Q04DX002 (ip), vehicle: saline): 88 % of control

C=CCC(CCC)(C(=O)Nc1ccc2nc(C)cc(N)c2c1)C(=O)Nc1ccc2nc(C)cc(N)c2c1
T/C [4]: 100 % of control
T/C [5]: 93 % of control

CC([NH-])CC(C)[NH-].[I][Pt+2][I] (centres undefined)
T/C (dose: 12.5 mg/kg/injection, schedule: Q04DX002 (ip), vehicle: saline with Tween-80): 169 % of control and 150 % of control
T/C (dose: 25.0 mg/kg/injection, schedule: Q04DX002 (ip), vehicle: saline with Tween-80): 163 % of control and 157 % of control

COC(=O)CCc1cc(=O)oc2c3c(cc(OC)c12)OC1OC(=O)CC31 (centres undefined)
T/C (dose: 8.75 mg/kg/injection, schedule: Q01DX005 (ip), vehicle: Klucel (hydroxypropylcellulose) (HPC)): 90 % of control
T/C (dose: 17.5 mg/kg/injection, schedule: Q01DX005 (ip), vehicle: Klucel (hydroxypropylcellulose) (HPC)): 95 % of control
T/C (dose: 35.0 mg/kg/injection, schedule: Q01DX005 (ip), vehicle: Klucel (hydroxypropylcellulose) (HPC)): 90 % of control
